Results from patent US20220107328A1, “METHODS OF TREATING LIVER DISEASES” (Camp4 Therapeutics Corporation, priority 2018, published 2022).
Where “and” joins values, the source holds several entries; their conditions need not be identical. Equal values may be shown once.

Experiments:
PNPLA3 mRNA [1] = experiment: qRT-PCR of PNPLA3 mRNA in compound-treated primary human hepatocytes; details: for Relative PNPLA3 mRNA levels: 10 μM, human hepatocytes, mean of three replicates ± standard deviation; for PNPLA3 mRNA, TGFβ and BMP pathway inhibitors (in words) / Relative PNPLA3 mRNA expression: primary human hepatocytes; for Relative PINPLA3 mRNA: hepatocytes
PCSK9 mRNA = experiment: qRT-PCR of PCSK9 mRNA in primary hepatocytes; type: cell-based, human; details: donor 4178, 3 μM, relative to GUSB
PNPLA3 mRNA [2] = experiment: qRT-PCR of PNPLA3 mRNA in human primary hepatic stellate cells; type: cell-based; details: for Primary Stellate cells PNPLA3 (fold change in mRNA expression): 3 μM, relative to GAPDH; for Relative PNPLA3 mRNA expression: stellate cells, Table 37; for Relative PNPLA3 mRNA levels RQ: GSK3 inhibitors in hepatic stellate cells
COL1A1 mRNA = experiment: qRT-PCR of COL1A1 mRNA in human primary hepatic stellate cells; type: cell-based; details: for Primary Stellate cells COL1A1 (fold change in mRNA expression): 3 μM, relative to GAPDH; for Relative COL1A1 mRNA levels RQ: GSK3 inhibitors in hepatic stellate cells
[3] = Syk pathway inhibitors, normalized to B2M
[4] = hepatic stellate cells, serial dilutions, 18 hours

`CC[C@@H]1CN(C(=O)NCC(F)(F)F)C[C@@H]1c1cnc2cnc3[nH]ccc3n12` [Upadacitinib] was tested, and the “Relative PNPLA3 mRNA levels” value (PNPLA3 mRNA [1]; JAK inhibitors, qRT-PCR) was 0.93 ± 0.15.
With `Cc1cc([C@@H](C)Nc2ccccc2C(=O)O)c2nc(N3CCOCC3)cc(=O)n2c1` [AZD6482] the “Primary Hepatocytes 4178 PCSK9 (fold change in mRNA expression)” value (PCSK9 mRNA) was 0.56, the “Primary Stellate cells PNPLA3 (fold change in mRNA expression)” value (PNPLA3 mRNA [2]) was 0.87 and the “Primary Stellate cells COL1A1 (fold change in mRNA expression)” value (COL1A1 mRNA) was 1.20.
With `c1cn2cc(-c3ccc4cn[nH]c4c3)nc(Nc3ccc(N4CCOCC4)cc3)c2n1` [entospletinib] the “Relative PNPLA3 mRNA levels” value (PNPLA3 mRNA [1]; [3]) was 0.67 ± 0.05.
In the case of `c1cc(-c2cnn3cc(-c4ccc(N5CCNCC5)cc4)cnc23)c2cccnc2c1` [LDN212854, LDN-212854], the “Relative PNPLA3 mRNA expression” value (PNPLA3 mRNA [2]; 0.01 uM) is reported as 0.92 ± 0.22, the “Relative PNPLA3 mRNA expression” value (PNPLA3 mRNA [2]; 0.1 uM) is reported as 1.02 ± 0.16 and the “Relative PNPLA3 mRNA expression” value (PNPLA3 mRNA [2]; 1 uM) is reported as 0.67 ± 0.12. The “Relative PNPLA3 mRNA expression” value (PNPLA3 mRNA [2]; 10 uM) was 7.43 ± 3.91, the “PNPLA3 mRNA, TGFβ and BMP pathway inhibitors (in words)” value (PNPLA3 mRNA [1]) was “did not decrease PNPLA3 mRNA in primary human hepatocytes” and the “Relative PNPLA3 mRNA expression” value (PNPLA3 mRNA [1]; 3.3 uM, Table 35) was 1.095 ± 0.1332. For the same compound, the “Relative PNPLA3 mRNA expression” value (PNPLA3 mRNA [1]; 10 uM, Table 35) was 0.9339 ± 0.04093.
`O=C1Nc2cc(Br)ccc2/C1=C1/Nc2ccccc2/C1=N\O` [BIO] was tested, and the “Relative PNPLA3 mRNA levels RQ” value (PNPLA3 mRNA [2]; 1 μM) was 1.09, the “Relative PNPLA3 mRNA levels RQ” value (PNPLA3 mRNA [2]; 10 μM) was 0.54 and the “PNPLA3 mRNA levels (in words)” value (PNPLA3 mRNA [2]; [4]) was “modestly decreased both PNPLA3 and COL1A1 in a dose dependent manner”. For the same compound, the “Relative COL1A1 mRNA levels RQ” value (COL1A1 mRNA; 1 μM) was 0.74, the “Relative COL1A1 mRNA levels RQ” value (COL1A1 mRNA; 10 μM) was 0.59 and the “COL1A1 expression (in words)” value (COL1A1 mRNA; [4]) was “modestly decreased both PNPLA3 and COL1A1 in a dose dependent manner”.
In the case of `CC[C@@H]1C(=O)N(C)c2cnc(Nc3ccc(C(=O)NC4CCN(C)CC4)cc3OC)nc2N1C1CCCC1` [BI 2536], the “Relative PINPLA3 mRNA” value (PNPLA3 mRNA [1]; 10 uM) is reported as 0.38.
With `Nc1nc(N)c2nc(-c3cccc(O)c3)c(-c3cccc(O)c3)nc2n1` [TG100-115] the “Primary Hepatocytes 4178 PCSK9 (fold change in mRNA expression)” value (PCSK9 mRNA) was 0.69, the “Primary Stellate cells PNPLA3 (fold change in mRNA expression)” value (PNPLA3 mRNA [2]) was 1.07 and the “Primary Stellate cells COL1A1 (fold change in mRNA expression)” value (COL1A1 mRNA) was 1.11.
`Cc1cnc(Nc2ccc(OCCN3CCCC3)cc2)nc1Nc1cccc(S(=O)(=O)NC(C)(C)C)c1` [Fedratinib (SAR302503, TG101348)] was tested, and the “Relative PINPLA3 mRNA” value (PNPLA3 mRNA [1]; 10 uM) was 0.25.
`CNS(=O)(=O)C[C@H]1CC[C@H](N(C)c2ncnc3[nH]ccc23)CC1` [Oclacitinib] was tested, and the “Relative PNPLA3 mRNA levels” value (PNPLA3 mRNA [1]; JAK inhibitors, qRT-PCR) was 0.56 ± 0.03 and the “PNPLA3 expression (in words)” value (PNPLA3 mRNA [1]; validation in human hepatocytes from a second donor, qRT-PCR) was “efficient downregulation of PNPLA3”.
`Cl.NNc1nncc2ccccc12` [Hydralazine HCI] was tested, and the “Relative PINPLA3 mRNA” value (PNPLA3 mRNA [1]; 10 uM) was 0.25.
In the case of `CCS(=O)(=O)N1CCN(c2ccc(Nc3ncc(C(N)=O)c(NC4CC4)n3)cc2)CC1` [Cerdulatinib], the “Relative PNPLA3 mRNA levels” value (PNPLA3 mRNA [1]; JAK inhibitors, qRT-PCR) is reported as 0.82 ± 0.00.
In the case of `Cc1c(Cn2c(C)nc3c(C(=O)O)cc(N4CCOCC4)cc32)cccc1C(F)(F)F` [GSK2636771], the “Primary Hepatocytes 4178 PCSK9 (fold change in mRNA expression)” value (PCSK9 mRNA) is reported as 0.59, the “Primary Stellate cells PNPLA3 (fold change in mRNA expression)” value (PNPLA3 mRNA [2]) is reported as 1.06 and the “Primary Stellate cells COL1A1 (fold change in mRNA expression)” value (COL1A1 mRNA) is reported as 1.04.
In the case of `Cc1cccc(-c2[nH]c(CNc3ccccc3F)nc2-c2ccc3ncnn3c2)n1` [TEW-7197], the “Relative PNPLA3 mRNA expression” value (PNPLA3 mRNA [1]; 0.04 uM, Table 34) is reported as 1.219 ± 0.186, the “Relative PNPLA3 mRNA expression” value (PNPLA3 mRNA [1]; 0.12 uM, Table 34) is reported as 0.822 ± 0.152 and the “Relative PNPLA3 mRNA expression” value (PNPLA3 mRNA [1]; 0.37 uM, Table 34) is reported as 0.613 ± 0.035. For the same compound, the “Relative PNPLA3 mRNA expression” value (PNPLA3 mRNA [1]; 3.3 uM, Table 34) was 0.560 ± 0.134.
In the case of `CN1C/C=C/CCOc2cccc(c2)-c2ccnc(n2)Nc2cccc(c2)C1` [SB1317], the “Relative PINPLA3 mRNA” value (PNPLA3 mRNA [1]; 1 uM) is reported as 0.400 and the “Relative PINPLA3 mRNA” value (PNPLA3 mRNA [1]; 10 uM) is reported as 0.413.
For `COC(=O)C1=C(C#N)NC(C)=C(C(=O)OC(C)C)C1c1cccc([N+](=O)[O-])c1` (stereo not shown) [nilvadipine], the “Relative PNPLA3 mRNA levels” value (PNPLA3 mRNA [1]; [3]) was 0.61 ± 0.08.
TGFB1 was tested, and the “Relative PNPLA3 mRNA expression” value (PNPLA3 mRNA [2]; 0.001 ug/ML) was 0.93 ± 0.11 and 1.50 ± 0.17 and the “Relative PNPLA3 mRNA expression” value (PNPLA3 mRNA [2]; 0.01 ug/ML) was 2.35 ± 0.39 and 1.40 ± 0.10.
In the case of `C/C=C1\NC(=O)[C@H]2CSSCC/C=C/[C@H](CC(=O)N[C@H](C(C)C)C(=O)N2)OC(=O)[C@H](C(C)C)NC1=O` [Romidepsin (FK228, Depsipeptide)], the “Relative PINPLA3 mRNA” value (PNPLA3 mRNA [1]; 10 uM) is reported as 0.3.
For `COc1cc(-c2cc(-c3cccc(O)c3)cnc2N)cc(OC)c1OC` [K02288], the “PNPLA3 mRNA, TGFβ and BMP pathway inhibitors (in words)” value (PNPLA3 mRNA [1]) was “did not decrease PNPLA3 mRNA in primary human hepatocytes”, the “Relative PNPLA3 mRNA expression” value (PNPLA3 mRNA [1]; 3.3 uM, Table 35) was 1.259 ± 0.3268 and the “Relative PNPLA3 mRNA expression” value (PNPLA3 mRNA [1]; 10 uM, Table 35) was 2.687 ± 0.4146.
